Entries after “also recorded” stand apart in the source; their conditions may differ. Read-outs that look alike come from different tables or passages of the source.
Key:
T-type Ca^2+ channel [1] = test system: T1, T-type Ca^2+ channel; assay: Inhibition of T-type Ca^2+ channel activity in a cell with the membrane potential held (patch-clamp); type: cell-based; details: in words; for inhibition of T-type Ca^2+ channel activity: cell membrane potential about −90 mV
T1 construct: other: cell membrane potential about −90 mV, in words; other: in words; selectivity for the −90 mV state relative to −40 mV; other: cell membrane potential about −30 mV to −60 mV
From the text: This disclosure further provides methods of identifying compounds that inhibit T-type Ca^2+ channel activity in a cell when the cell membrane potential is about −90 mV. These methods include determining the ability of a compound to inhibit T-type Ca^2+ channel activity in a cell when the cell membrane potential is held at about −90 mV. The membrane potential can be held at about −90 mV by techniques known in the art, such as the patch-clamp technique. The ability of a compound to inhibit T-type Ca^2+ channel activity in a cell when the cell membrane potential is about −90 mV can be determined, for example, by determining the ability of the compound to prevent growth factor-stimulated calcium entry into the cell. Calcium entry into the cell can be determined by measuring increases in levels of intracellular calcium, such as by use of a calcium sensitive fluorescent dye.
This disclosure further provides methods of identifying compounds that inhibit T-type Ca^2+ channel activity in a cell when the cell membrane potential is about −90 mV. Such compounds can be identified by measuring inhibition of T-type Ca^2+ channel activity in a cell using standard electrophysiological methods such as patch clamp or by measuring the ability of a pharmaceutical agent to block calcium entry into a cell, such as a cancer cell, when that cell is stimulated by a mitogen, such as a growth factor. Such methods are disclosed, for example, in Densmore, et al., FEBS Lett. 312:161-164 (1992); Haverstick, et al., Mol. Biol. Cell 4:173-184 (1993); and Gomora et al., J. Pharmacol. Exp. Ther. 292:96-103 (2000), the contents of which are incorporated by reference. Calcium entry can be determined by methods such as intracellular entrapment of a Ca^2+ sensitive fluorescent dye.
In some embodiments, the cell membrane potential can be controlled using a patch-clamp technique. In some embodiments cell membrane potential can be controlled using any other technique described herein or known in the art.

cancer cells = assay: Cancer cell proliferation; type: cell-based; details: in words
T-type Ca^2+ channel [2] = test system: T1, T-type Ca^2+ channel; details: cited from earlier work; for potency for inhibition of the T-type calcium channel: in words; for IC50: read-out: IC50 for inhibiting T-type Ca^2+ channel activity
T-type Ca^2+ channel [3] = details: ratio; cited from earlier work
human glioblastoma = details: seven day course of mibefradil, then five day course of temozolomide; cited from earlier work
CYP 450 3A4 = CYP 450 3A4 (Homo sapiens, UniProt P08684); details: in words; cited from earlier work
CYP 450 3A4, sequence (P08684 whole entry): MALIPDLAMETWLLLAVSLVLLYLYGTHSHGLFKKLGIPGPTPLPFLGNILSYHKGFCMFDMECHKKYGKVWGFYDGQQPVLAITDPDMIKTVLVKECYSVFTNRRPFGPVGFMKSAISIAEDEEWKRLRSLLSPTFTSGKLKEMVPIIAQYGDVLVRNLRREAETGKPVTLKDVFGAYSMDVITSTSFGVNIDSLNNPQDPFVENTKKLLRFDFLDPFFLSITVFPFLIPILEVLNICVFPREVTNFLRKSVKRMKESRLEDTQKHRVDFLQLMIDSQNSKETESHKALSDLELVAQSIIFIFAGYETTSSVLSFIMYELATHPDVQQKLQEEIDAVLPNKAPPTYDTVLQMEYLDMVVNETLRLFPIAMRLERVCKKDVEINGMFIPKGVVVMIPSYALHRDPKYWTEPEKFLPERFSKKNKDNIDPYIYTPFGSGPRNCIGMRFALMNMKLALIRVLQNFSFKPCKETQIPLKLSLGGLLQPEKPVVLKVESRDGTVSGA

[4] = used by almost a million patients; cited from earlier work

| Compound | selectivity for the −90 mV state relative to −40 mV (T-type Ca^2+ channel [1]) | anti-proliferative activity (cancer cells) | potency for inhibition of the T-type calcium channel (T-type Ca^2+ channel [2]) | inhibition of T-type Ca^2+ channel activity (T-type Ca^2+ channel [1]) | other results |
| --- | --- | --- | --- | --- | --- |
| CC(C)c1ccc(CC(=O)N[C@H](C)c2ccc(OCC(F)(F)F)cn2)cc1 [MK-8998] | decreased selectivity | without anti-proliferative activity; also recorded: little or no effect | high potency | – | – |
| COc1ccc(CCN2CCC[C@H]2COC(c2ccccc2)c2ccc(Cl)cc2)cc1 (stereo partly drawn) [TH-1177] | – | – | – | inhibit | – |
| C[C@@H](NC(=O)Cc1ccc(C2CC2)cc1)c1ccc(OCC(F)(F)F)cn1 [TTA-A2] | decreased selectivity | without anti-proliferative activity; also recorded: little or no effect | high potency | – | – |
| O=c1[nH]c2cc(Cl)ccc2n1C1CCN(CCCC(c2ccc(F)cc2)c2ccc(F)cc2)CC1 [chlopimozide] | – | anti-proliferative | – | – | – |
| COCC(=O)O[C@]1(CCN(C)CCCc2nc3ccccc3[nH]2)CCc2cc(F)ccc2[C@@H]1C(C)C [mibefradil] | preferentially blocks the −90 mV state | inhibit cancer cell proliferation | – | inhibit | anti-proliferative activity (cancer cells; listed as Mibefradil): antiproliferative; preference for blocking channels at about −30 mV to −60 mV over −90 mV (T-type Ca^2+ channel [3]): 10 to 1; IC50 (T-type Ca^2+ channel [2]; cell membrane potential about −30 mV to −60 mV): ≥ 100 nM; IC50 (T-type Ca^2+ channel [2]; cell membrane potential of −80 mV to −90 mV): ~1000 nM; effect on the cytotoxic effect of temozolomide (human glioblastoma): significantly increased; also recorded: restored the sensitivity to temozolomide; inhibition of CYP 450 3A4 (CYP 450 3A4): inhibition; tolerability [4]: remarkably well tolerated |

Reference: US20150355163A1, “T-TYPE CALCIUM CHANNEL INHIBITORS FOR TREATMENT OF CANCER” (TAU THERAPEUTICS LLC, priority 2013, published 2015)
